# According to patent US5395947A, “Platinum(II) complex and processes for preparing the same” (Sunkyong Industries, Ltd., priority 1991, dated 1995):
# Legend:
# ICR mice = assay: Acute toxicity test; type: in vivo; design: Lethality: unit not given here; conditions: for Lethality: 10080 min
# Procedure: 7-week-old ICR mice(male: 34±2 g; female: 31±2 g) were fed with solid food and water under the condition of 23±1° C. temperature and 65±5% humidity before the test.
# Each treatment group consisted of 6 mice. The test compounds were administered intraperitoneally.
# For 7 days after the administration, the appearance and the fate of the tested animals were recorded. The dead animals were subjected to autopsy and their visible pathological changes were observed. Their viscerals were stored in 10% formalin solution.
# murine leukemia L1210 = assay: Antitumor activity test on murine leukemia L1210 in vivo; design: species or system male BDF1 mice; conditions: days 1, 5, 9
# Procedure: 2. Antitumor activity test on murine leukemia L1210 in vivo
# Murine leukemia L1210 cells were maintained in the peritoneal cavities of 6-week-old male DBA/2 mice by weekly transfer in accordance with the procedure described in cancer chemotherapy Reports, Part 3, 3(2), 7 (1972). Specifically, 1×10^6 leukemia cells were inoculated into the abdominal cavities of 6-week-old male BDF1 mice weighing 21±3 g on day 0. Each treatment group consisted of seven mice. The test compounds were dissolved or suspended in 0.5% carboxymethyl cellulose(CMC)solution (in water) and were administered intraperitoneally on days 1, 5, and 9 relative to the tumor inoculation.
# Thirty mice of 6-week-old male BDF1 weighing 21±3 g were used as the control group, which were injected with 0.5% CMC solution only in the same manner as above.
# Anti-tumor activities of the compounds were evaluated in terms of the T/C % values calculated from the mean survival time(T) of the compound-treated group over that(C) of the control group. [formula]
# [1] = test system: murine leukemia L1210 cells; assay: Growth inhibition test on cultured murine leukemia L1210 cells; type: cell-based; conditions: 48 hours, 37° C., Trypan blue viability
# Procedure: 1. Growth inhibition test on cultured murine leukemia L1210 cells
# Murine leukemia L1210 cells(1×10^5) were treated with various concentrations of the compounds prepared in the above examples in RPMI 1640 medium supplemented with 10% fetal calf serum, and cultured in a 5% CO2 humidified incubator at 37° C. for 48 hours. Their viability, estimated by staining with 0.17% Trypan blue, was compared with that of control cells cultured in the identical medium without the compounds.
# [2] = Test for water solubility; type: physicochemical
# Text: 3. Test for water solubility
# A standard plot of UV absorbance(220 nm) vs. concentration was made; and employed to determine water-solubility.
# The mixture was then passed through a 0.45 micron disposable membrane filter before dilution and UV measurement.
structure (smiles),measurement,setting,value
"CC1[O][Pt][O]C1=O.CCC1OC(CN)C(CN)O1 [Example 18, (L-lactato-O,O')[(4R,5R)-4,5-bis(aminomethyl)-2-ethyl-1,3-dioxolane]platinum(II)]",Number of dead mice for 7 days,"ICR mice; female, 41.3 mg/kg i.p.",3/6
same,"Number of dead mice, 1st day","ICR mice; female, 41.3 mg/kg i.p.",0/6
same,"Number of dead mice, 5th day","ICR mice; female, 41.3 mg/kg i.p.",1/6
same,"Number of dead mice, 6th day","ICR mice; female, 41.3 mg/kg i.p.",2/5
same,Lethality,"ICR mice; female, 41.3 mg/kg i.p.",55.0
same,Number of dead mice for 7 days,"ICR mice; female, 54.9 mg/kg i.p.",4/6
same,"Number of dead mice, 1st day","ICR mice; female, 54.9 mg/kg i.p.",0/6
same,"Number of dead mice, 3rd day","ICR mice; female, 54.9 mg/kg i.p.",1/6
same,"Number of dead mice, 4th day","ICR mice; female, 54.9 mg/kg i.p.",2/5
same,"Number of dead mice, 5th day","ICR mice; female, 54.9 mg/kg i.p.",1/3
same,Lethality,"ICR mice; female, 54.9 mg/kg i.p.",66.7
same,Number of dead mice for 7 days,"ICR mice; female, 71.4 mg/kg i.p.",5/6
same,"Number of dead mice, 1st day","ICR mice; female, 71.4 mg/kg i.p.",0/6
same,"Number of dead mice, 4th day","ICR mice; female, 71.4 mg/kg i.p.",1/6
same,"Number of dead mice, 5th day","ICR mice; female, 71.4 mg/kg i.p.",3/5
same,"Number of dead mice, 6th day","ICR mice; female, 71.4 mg/kg i.p.",1/2
same,Lethality,"ICR mice; female, 71.4 mg/kg i.p.",83.3
same,Number of dead mice for 7 days,"ICR mice; female, 91.8 mg/kg i.p.",6/6
same,"Number of dead mice, 1st day","ICR mice; female, 91.8 mg/kg i.p.",1/6
same,"Number of dead mice, 2nd day","ICR mice; female, 91.8 mg/kg i.p.",1/6
same,"Number of dead mice, 3rd day","ICR mice; female, 91.8 mg/kg i.p.",2/5
same,"Number of dead mice, 4th day","ICR mice; female, 91.8 mg/kg i.p.",2/3
same,"Number of dead mice, 5th day","ICR mice; female, 91.8 mg/kg i.p.",1/1
same,Lethality,"ICR mice; female, 91.8 mg/kg i.p.",100.0
same,Number of dead mice for 7 days,"ICR mice; male, 41.3 mg/kg i.p.",4/6
same,"Number of dead mice, 1st day","ICR mice; male, 41.3 mg/kg i.p.",0/6
same,"Number of dead mice, 4th day","ICR mice; male, 41.3 mg/kg i.p.",1/6
same,"Number of dead mice, 5th day","ICR mice; male, 41.3 mg/kg i.p.",1/5
same,"Number of dead mice, 6th day","ICR mice; male, 41.3 mg/kg i.p.",2/4
same,Lethality,"ICR mice; male, 41.3 mg/kg i.p.",66.7
same,Number of dead mice for 7 days,"ICR mice; male, 54.9 mg/kg i.p.",4/6
same,"Number of dead mice, 1st day","ICR mice; male, 54.9 mg/kg i.p.",0/6
same,"Number of dead mice, 2nd day","ICR mice; male, 54.9 mg/kg i.p.",1/6
same,"Number of dead mice, 3rd day","ICR mice; male, 54.9 mg/kg i.p.",1/5
same,"Number of dead mice, 4th day","ICR mice; male, 54.9 mg/kg i.p.",1/4
same,"Number of dead mice, 5th day","ICR mice; male, 54.9 mg/kg i.p.",1/3
same,Lethality,"ICR mice; male, 54.9 mg/kg i.p.",66.7
same,Number of dead mice for 7 days,"ICR mice; male, 71.4 mg/kg i.p.",5/6
same,"Number of dead mice, 1st day","ICR mice; male, 71.4 mg/kg i.p.",0/6
same,"Number of dead mice, 4th day","ICR mice; male, 71.4 mg/kg i.p.",2/6
same,"Number of dead mice, 5th day","ICR mice; male, 71.4 mg/kg i.p.",2/4
same,"Number of dead mice, 6th day","ICR mice; male, 71.4 mg/kg i.p.",1/2
same,Lethality,"ICR mice; male, 71.4 mg/kg i.p.",83.3
same,Number of dead mice for 7 days,"ICR mice; male, 91.8 mg/kg i.p.",6/6
same,"Number of dead mice, 1st day","ICR mice; male, 91.8 mg/kg i.p.",0/6
same,"Number of dead mice, 2nd day","ICR mice; male, 91.8 mg/kg i.p.",3/6
same,"Number of dead mice, 4th day","ICR mice; male, 91.8 mg/kg i.p.",1/3
same,"Number of dead mice, 5th day","ICR mice; male, 91.8 mg/kg i.p.",1/2
same,"Number of dead mice, 6th day","ICR mice; male, 91.8 mg/kg i.p.",1/1
same,Lethality,"ICR mice; male, 91.8 mg/kg i.p.",100.0
same,T/C (%),murine leukemia L1210; 12.5 mg/kg i.p.,206%
same,T/C (%),murine leukemia L1210; 25 mg/kg i.p.,165%
same,T/C (%),murine leukemia L1210; 50 mg/kg i.p.,toxic
same,IC50 (concentration required for 50% inhibition of growth),[1],0.32 µg/mL
"CCC1C(=O)[O][Pt-2]2([NH2+]CC3OC(C(C)C)OC3C[NH2+]2)[O]C1=O [Example 44, cis-ethylmalonato[(4R,5R)-4,5-bis(aminomethyl)-2-isopropyl-1,3-dioxolane]platinum(II)]",Solubility in water,[2]; 20° C.,7800 µg/mL
same,T/C (%),murine leukemia L1210; 25 mg/kg i.p.,137%
same,T/C (%),murine leukemia L1210; 50 mg/kg i.p.,169%
same,T/C (%),murine leukemia L1210; 100 mg/kg i.p.,243%
same,IC50 (concentration required for 50% inhibition of growth),[1],0.47 µg/mL
"CC(C)CC1OC2C[NH2+][Pt-2]3([NH2+]CC2O1)[O]CC(=O)[O]3 [Example 11, (glycolato-O,O')[(4R,5R)-4,5-bis(aminomethyl)-2-isobutyl-1,3-dioxolane]platinum(II)]",Solubility in water,[2]; water,4600 µg/mL
same,T/C (%),murine leukemia L1210; 3.1 mg/kg i.p.,102%
same,T/C (%),murine leukemia L1210; 6.2 mg/kg i.p.,146%
same,T/C (%),murine leukemia L1210; 12.5 mg/kg i.p.,191%
same,T/C (%),murine leukemia L1210; 25 mg/kg i.p.,toxic
same,T/C (%),murine leukemia L1210; 50 mg/kg i.p.,toxic
same,IC50 (concentration required for 50% inhibition of growth),[1],0.10 µg/mL
"O=C1[O][Pt-2]2([NH2+]CC3OC4(CCCC4)OC3C[NH2+]2)[O]C(=O)C12CCC2 [Example 31, cis-cyclobutane-1,1-dicarboxylato[(4S,5S)-4,5-bis(aminomethyl)-1,3-dioxolane-2-spiro-1'-cyclopentane]platinum(II)]",Solubility in water,[2]; water,1900 µg/mL
same,T/C (%),murine leukemia L1210; 6.2 mg/kg i.p.,102%
same,T/C (%),murine leukemia L1210; 12.5 mg/kg i.p.,109%
same,T/C (%),murine leukemia L1210; 25 mg/kg i.p.,94%
same,T/C (%),murine leukemia L1210; 50 mg/kg i.p.,106%
same,T/C (%),murine leukemia L1210; 100 mg/kg i.p.,117%
same,IC50 (concentration required for 50% inhibition of growth),[1],1.75 µg/mL
"CCC1OC2C[NH2+][Pt-2]3([NH2+]CC2O1)[O]C(=O)C1(CCC1)C(=O)[O]3 [Example 25, cis-cyclobutane-1,1-dicarboxylato[(4S,5S)-4,5-bis(aminomethyl)-2-ethyl-1,3-dioxolane]platinum(II)]",Solubility in water,[2]; 20° C.,11800 µg/mL
same,IC50 (concentration required for 50% inhibition of growth),[1],1.02 µg/mL
"CC1(C)OC2C[NH2+][Pt-2]3([NH2+]CC2O1)[O]C(=O)C1(CCC1)C(=O)[O]3 [Example 27, cis-cyclobutane-1,1-dicarboxylato[(4S,5S)-4,5-bis(aminomethyl)-2,2-dimethyl-1,3-dioxolane]platinum(II)]",Solubility in water,[2]; water,1900 µg/mL
same,T/C (%),murine leukemia L1210; 6.2 mg/kg i.p.,112%
same,T/C (%),murine leukemia L1210; 12.5 mg/kg i.p.,106%
same,T/C (%),murine leukemia L1210; 25 mg/kg i.p.,124%
same,T/C (%),murine leukemia L1210; 50 mg/kg i.p.,148%
same,T/C (%),murine leukemia L1210; 100 mg/kg i.p.,142%
same,IC50 (concentration required for 50% inhibition of growth),[1],2.36 µg/mL
"O=C1[O][Pt-2]2([NH2+]CC3OC4(CCCCC4)OC3C[NH2+]2)[O]C(=O)C12CCC2 [Example 32, cis-cyclobutane-1,1-dicarboxylato[(4R,5R)-4,5-bis(aminomethyl)-1,3-dioxolane-2-spiro-1'-cyclohexane]platinum(II)]",Solubility in water,[2]; 20° C.,900 µg/mL
same,IC50 (concentration required for 50% inhibition of growth),[1],1.05 µg/mL
"CCC1OC2C[NH2+][Pt-2]3([NH2+]CC2O1)[O]C(=O)C(CC)C(=O)[O]3 [Example 43, cis-ethylmalonato[(4R,5R)-4,5-bis(aminomethyl)-2-ethyl-1,3-dioxolane]platinum(II)]",Solubility in water,[2]; water,7900 µg/mL
same,T/C (%),murine leukemia L1210; 25 mg/kg i.p.,197%
same,T/C (%),murine leukemia L1210; 50 mg/kg i.p.,245%
same,T/C (%),murine leukemia L1210; 100 mg/kg i.p.,toxic
same,IC50 (concentration required for 50% inhibition of growth),[1],0.72 µg/mL
